Assays:
[1] = tested on: primary microglia from wild-type mice; test: LPS-induced inflammatory cytokine secretion in primary microglia (ELISA), wild-type; assay type: cell-based, mouse
Procedure: (§1) Primary microglia were obtained from wild-type mice and Psen2^N141I/+ mice with Alzheimer's disease. Specifically, brains were excised from neonatal mice 1 to 3 days old and cells were obtained therefrom. The cells were cultured in Dulbecco's modified Eagle's medium (DMEM, Corning) supplemented with 10% heat-inactivated fetal bovine serum (HI-FBS, Hyclone) and 1% penicillin-streptomycin (Hyclone). Primary microglia were isolated in vitro by tapping after 12 days of culturing. Purity of primary microglia was estimated by immunostaining with an antibody against Iba-1, which is a microglial marker.
(§2) In this regard, the primary microglia were preincubated with or without 0.5 μM chlorpromazine for 30 min before LPS treatment. Anti-inflammatory effects were compared and analyzed between the test groups.

[2] = tested on: primary microglia from Psen2^N141I/+ mice with Alzheimer's disease; test: LPS-induced inflammatory cytokine secretion in primary microglia (ELISA), Psen2 mutation; assay type: cell-based, mouse
Procedure: as §1, §2

[3] = tested on: primary microglia from Psen2 mutation mouse model of Alzheimer's disease; test: IL-1β secretion after LPS and inflammasome activation (nigericin/ATP), Psen2 mutation microglia; assay type: cell-based; settings: for IL-1β secreted: chlorpromazine 30 min, LPS 1 μg/mL 3 h
Procedure: as §1
IL-1β is a cytokine released from an activated inflammasome complex in microglia. For secretion of the cytokine, additional treatment with a drug for inducing activation of the inflammasome complex is necessary following LPS-induced inflammation. […] Application of the test groups thus obtained could divide groups 5 to 8 of Example 5-2 into 10 subgroups according to treatment with nigericin and ATP.

[4] = tested on: primary microglia from wild-type (WT) mice; test: fAβ42-induced cytokine secretion in primary microglia (ELISA), wild-type; assay type: cell-based, mouse; settings: 4 μM fAβ42, 0.5 μM chlorpromazine (Group 24)
Procedure: as §1
Specifically, FITC-conjugated amyloid beta 1-42 was prepared according to the follow reference (Cho, M.-H. et al. “Autophagy in microglia degrades extracellular β-amyloid fibrils and regulates the NLRP3 inflammasome.” Autophagy 10, 1761-1775 (2014)).
The primary cultures of microglia prepared in Example 5-1 from the Psen2 mutation (KI/+) mouse model of Alzheimer's disease and the wild-type (WT) mice were directly treated with 4 μM of the fibrilized amyloid beta 1-42 (fAβ42), followed by incubation with or without 0.5 μM chlorpromazine.

[5] = tested on: Nr1d1 mRNA in primary microglia from Psen2 mouse model of Alzheimer's disease; test: Nr1d1 mRNA expression in primary microglia (qRT-PCR), Psen2 mutation; assay type: cell-based
Procedure: Effects were analyzed in the experimental group not treated with chlorpromazine on the obtained microglia and the experimental group treated with chlorpromazine at a dose of 0.5 μM.

[6] = tested on: REV-ERBα protein in primary microglia from wild-type mice; test: REV-ERBα protein expression in primary microglia (western blotting), wild-type; assay type: cell-based, mouse
Procedure: (§3) Effects were analyzed in the experimental group not treated with chlorpromazine on the obtained microglia and the experimental group treated with chlorpromazine at a dose of 0.5 μM. For analysis of REV-ERBα protein expression levels, western blotting was carried out. Specifically, primary microglia were lysed in a 1% Triton X-100 lysis buffer (1% Triton X-100, 250 mM sucrose, 1 mM EDTA, 1 mM phenylmethylsulfonyl fluoride, and 50 mM NaCl in 20 mM Tris-HCl, pH 7.4) with 1×protease and phosphatase inhibitors (Thermo Fisher Scientific) and 0.1 M dithiothreitol (Sigma-Aldrich). The cell lysates were separated by sodium dodecyl sulfate-polyacrylamide gel electrophoresis and transferred to polyvinylidene fluoride membranes. The membranes were incubated with the appropriate primary antibodies, and bound antibodies were detected by species-specific, horseradish peroxidase-conjugated secondary antibodies. Chemiluminescence detection was performed to analyze the protein bands of interest.

[7] = tested on: REV-ERBα protein in primary microglia from Psen2 mouse model of Alzheimer's disease; test: REV-ERBα protein expression in primary microglia (western blotting), Psen2 mutation; assay type: cell-based
Procedure: as §3

wild-type mice [8] = test: Y-maze test, wild-type mice; assay type: in vivo, mouse; settings: for Y-maze Alternation % / Y-maze No. of Arm entry: chlorpromazine 0.25 mg/kg i.p., mean±SEM
Procedure: Specifically, the Y-maze was used to evaluate spatial working memory. The assay was conducted in white plastic arms of a Y-shaped maze. A mouse was placed in the center of the maze and was allowed to freely explore the arms for 5 min. The experiment was recorded with EthoVision software (Noldus). The number of arm entries and the number of triads were analyzed to calculate the percentage of alternation by dividing the number of three consecutive arm entries (triads) by the number of possible triads×100 (total arm entries−2).
An examination was made to see whether LPS-induced inflammation causes memory decline and chlorpromazine reverses the LPS-induced inflammation in disease animal models. To analyze memory and behavior performance, the Y-maze test as in Example 4 was conducted.

[9] = tested on: elderly with schizophrenia; settings: taken for a long time at the current market dose; cited from earlier work
wild-type mice [10] = test: Serum cytokine levels after low-concentration LPS injection, wild-type mice
Procedure: To investigate neuroinflammation at various concentrations of LPS, blood was extracted from cheek veins in the wild-type mice in group 2 and the mouse model of Alzheimer's disease in group 4 20 hours after the injection of LPS. The sera obtained by centrifugation were quantitatively analyzed for IL-6, TNFα, CCL2, CXCL1, and CCL5 by using ELISA kit (R&D Systems) according to the manufacturer's instruction. In addition, the same procedure was conducted for the wild-type mice without LPS injection of group 1 and the Psen2^N141I mutation mouse model of Alzheimer's disease of group 3 to obtain sera which were then analyzed for the proteins by using the ELISA kit according to the manufacturer's instruction.
The wild-type mice and the Psen2 mutation mouse model of Alzheimer's disease obtained in Example 1 were intraperitoneally injected with chlorpromazine (0.25 mg/body weight kg) at 14:00 and then with such a low concentration of LPS (0.35 μg/kg) as to be ineffective for inflammation in wild-type mice at 18:00 (Zeitgeber time light-on at 11:00 and 07:00). After 20 hours, the mice were monitored for inflammatory responses and memory behavior. The concentration of chlorpromazine (0.25 mg/body weight kg) used in this assay is tens- to hundreds-fold lower than those conventionally used as an antipsychotic (25 mg/injection, 3 times/day).
After the experiment conducted as in the scheme of FIG. 11A, the wild-type and the Psen2^N141I/+ Alzheimer's disease mice, both intraperitoneally injected with LPS, were analyzed for inflammatory response according to chlorpromazine treatment as measured for serum levels of the circadian clock-controlled cytokines (IL-6, CXCL1, CCL2, and CCL5) by ELISA as in Example 2.

[11] = WT microglia, LPS 1 μg/mL 12 h, preincubated 0.5 μM chlorpromazine 30 min (Group 6)
[12] = KI/+ microglia, LPS 1 μg/mL 12 h, preincubated 0.5 μM chlorpromazine 30 min (Group 8)
[13] = KI/+ microglia, no LPS, 0.5 μM chlorpromazine (Group 30), mean±SEM
[14] = Psen2 mutation microglia, group 30, chlorpromazine 0.5 μM
[15] = wild-type/LPS(+)/CPZ(+) (Group 44), LPS 0.35 μg/kg
[16] = wild-type/LPS(−)/CPZ(+) (Group 42)
[17] = chlorpromazine 0.25 mg/kg i.p., LPS 0.35 μg/kg i.p., 20 h after LPS (Group 38)

Compound: CN(C)CCCN1c2ccccc2Sc2ccc(Cl)cc21 [CPZ, 3-(2-chloro-10H-phenothiazin-10-yl)-N,N-dimethyl-propan-1-amine]
- Inflammatory cytokine secreted CCL2 [1, 11]: 948.716 pg/mL
- Inflammatory cytokine secreted CCL5 [1, 11]: 948.716 pg/mL
- Inflammatory cytokine secreted CXCL1 [1, 11]: 937.727 pg/mL
- Inflammatory cytokine secreted TNF-α [1, 11]: 1414.237 pg/mL
- Inflammatory cytokine secreted IL-6 ([1]; WT microglia, LPS 1 μg/mL 12 h, preincubated 0.5 μM chlorpromazine 30 min (Group 6), mean): 2228.546 pg/mL
- protein levels of circadian clock-controlled cytokines (in words) ([1]; wild-type microglia, groups 5 and 6, chlorpromazine 0.5 μM, LPS): not affected
- Inflammatory cytokine secreted CCL2 [2, 12]: 734.064 pg/mL
- Inflammatory cytokine secreted CCL5 [2, 12]: 804.394 pg/mL
- Inflammatory cytokine secreted CXCL1 [2, 12]: 924.907 pg/mL
- Inflammatory cytokine secreted IL-6 [2, 12]: 2724.458 pg/mL
- Inflammatory cytokine secreted TNF-α [2, 12]: 1532.733 pg/mL
- production of IL-6, CXCL1, CCL2, and CCL5 (in words) ([2]; Psen2 mutation microglia, groups 7 vs 8, chlorpromazine 0.5 μM, LPS): decrease the production
- production of TNF-α (in words) ([2]; across all the groups (WT and KI/+ microglia), chlorpromazine 0.5 μM, LPS): no impacts
- IL-1β secreted ([3]; Psen2 mutation microglia (Group 20), Nig(+)/ATP(−), nigericin 10 μM 40 min): 946.122 pg/mL
- IL-1β secreted ([3]; Psen2 mutation microglia (Group 22), Nig(−)/ATP(+), ATP 5 mM 40 min): 1186.118 pg/mL
- production of IL-1β (in words) ([3]; across all the groups (WT and Psen2 mutation microglia), LPS plus nigericin or ATP): no impacts
- Secreted inflammatory cytokine CCL2 [4]: 1062.537 pg/mL
- Secreted inflammatory cytokine CCL5 [4]: 1204.562 pg/mL
- Secreted inflammatory cytokine CXCL1 [4]: 1237.646 pg/mL
- Secreted inflammatory cytokine IL-6 [4]: 1164.200 pg/mL
- Secreted inflammatory cytokine TNF-α [4]: 1218.952 pg/mL
- Nr1d1 mRNA expression [5, 13]: 0.976 ± 0.094 fold
- Nr1d1 mRNA expression level (in words) [5, 14]: restored to the level in the wild-type group
- REV-ERBα protein expression ([6]; WT microglia, no LPS, 0.5 μM chlorpromazine (Group 28), mean±SEM): 0.956 ± 0.096 fold
- REV-ERBα protein expression level (in words) ([6]; wild-type microglia, group 28): no effect
- REV-ERBα protein expression [7, 13]: 0.882 ± 0.032 fold
- REV-ERBα protein expression level (in words) [7, 14]: restored to the level in the wild-type group
- memory performance, arm alternation in Y-maze (in words) (wild-type mice [8]; wild-type mice, chlorpromazine alone (group 42) or with LPS (group 44)): normal memory performance
- Y-maze Alternation % (wild-type mice [8]; [15]): 64.333 ± 3.175%
- Y-maze No. of Arm entry (wild-type mice [8]; [15]): 17.889 ± 1.136
- Y-maze Alternation % (wild-type mice [8]; [16]): 66.667 ± 4.681%
- Y-maze No. of Arm entry (wild-type mice [8]; [16]): 20.167 ± 1.537
- side effect on mortality [9]: increasing the mortality rate
- Inflammatory cytokine secreted IL-6 (serum) (wild-type mice [10]; chlorpromazine 0.25 mg/kg i.p. 4 h before LPS 0.35 μg/kg i.p., 20 h after LPS (Group 38)): 68.214 pg/mL
- Inflammatory cytokine secreted CCL2 (serum) (wild-type mice [10]; [17]): 117.032 pg/mL
- Inflammatory cytokine secreted CCL5 (serum) (wild-type mice [10]; [17]): 80.808 pg/mL
- Inflammatory cytokine secreted CXCL1 (serum) (wild-type mice [10]; [17]): 172.313 pg/mL
- Inflammatory cytokine secreted TNF-α (serum) (wild-type mice [10]; [17]): 62.634 pg/mL
- production of the circadian clock-controlled cytokines in serum (in words) (wild-type mice [10]; groups 37 and 38, LPS 0.35 μg/kg): did not affect
